Test results from PubChem BioAssay AID250 (DTP/NCI, 2004).
Several values for one entry are separate records, joined by “and”; a condition that tells them apart may be missing. Equal values may be shown once. Inconclusive results and toxic doses are left out.

Tested on: BDF1 mice, L1210 leukemia sc, survival T/C
Assay: NCI In Vivo Anticancer Drug Screen. Data for tumor model L1210 Leukemia (subcutaneous) in B6D2F1 (BDF1) mice
Settings: endpoint: median survival time, higher = longer survival
In short: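 Mice carrying transplanted tumors received test compounds, and survival or tumor size was measured. Values are the treated-group measurement (T) divided by that of the vehicle-treated control group (C).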

NC(Cc1c[nH]c2ccc(N(CCCl)CCCl)cc12)C(=O)O (stereo not given)
T/C (dose: 0.65 mg/kg/injection, schedule: Q01DX Z (sc), vehicle: methylcellulose (MC)): 105 % of control | T/C (dose: 1.08 mg/kg/injection, schedule: Q01DX Z (sc), vehicle: methylcellulose (MC)): 111 % of control | T/C (dose: 1.8 mg/kg/injection, schedule: Q01DX Z (sc), vehicle: methylcellulose (MC)): 123 % of control | T/C (dose: 8.4 mg/kg/injection, schedule: Q01DX Z (sc), vehicle: methylcellulose (MC)): 117 % of control

S=P(N1CCCCCC1)(N1CC1)N1CC1
T/C (dose: 4.7 mg/kg/injection, schedule: Q01DX Z (sc), vehicle: saline): 100 % of control | T/C (dose: 7.8 mg/kg/injection, schedule: Q01DX Z (sc), vehicle: saline): 111 % of control | T/C (dose: 8.4 mg/kg/injection, schedule: Q01DX Z (sc), vehicle: saline): 111 % of control | T/C (dose: 13.0 mg/kg/injection, schedule: Q01DX Z (sc), vehicle: saline): 100 % of control | T/C (dose: 14.0 mg/kg/injection, schedule: Q01DX Z (sc), vehicle: saline): 111 % of control | T/C (dose: 21.6 mg/kg/injection, schedule: Q01DX Z (sc), vehicle: saline): 111 % of control | T/C (dose: 23.0 mg/kg/injection, schedule: Q01DX Z (sc), vehicle: saline): 111 % of control | T/C (dose: 36.0 mg/kg/injection, schedule: Q01DX Z (sc), vehicle: saline): 116 % of control | T/C (dose: 39.0 mg/kg/injection, schedule: Q01DX Z (sc), vehicle: saline): 122 % of control | T/C (dose: 60.0 mg/kg/injection, schedule: Q01DX Z (sc), vehicle: saline): 166 % of control | T/C (dose: 65.0 mg/kg/injection, schedule: Q01DX Z (sc), vehicle: saline): 116 % of control | T/C (dose: 100.0 mg/kg/injection, schedule: Q01DX Z (sc), vehicle: saline): 161 % of control | T/C (dose: 108.0 mg/kg/injection, schedule: Q01DX Z (sc), vehicle: saline): 155 % of control

CS(=O)(=O)OCCCl
T/C (dose: 14.0 mg/kg/injection, schedule: Q01DX Z (sc), vehicle: methylcellulose (MC)): 90 % of control | T/C (dose: 23.0 mg/kg/injection, schedule: Q01DX Z (sc), vehicle: methylcellulose (MC)): 95 % of control | T/C (dose: 39.0 mg/kg/injection, schedule: Q01DX Z (sc), vehicle: methylcellulose (MC)): 90 % of control | T/C (dose: 65.0 mg/kg/injection, schedule: Q01DX Z (sc), vehicle: methylcellulose (MC)): 100 % of control

CC(=O)NC(CCC(=O)C=[N+]=N)C(=O)O (stereo not given)
T/C (dose: 0.07 mg/kg/injection, schedule: Q#A X Z (sc), vehicle: water): 100 % of control | T/C (dose: 0.11 mg/kg/injection, schedule: Q#A X Z (sc), vehicle: water): 109 % of control | T/C (dose: 0.14 mg/kg/injection, schedule: Q01DX Z (sc), vehicle: water): 95 % of control | T/C (dose: 0.19 mg/kg/injection, schedule: Q01DX Z (sc), vehicle: water): 110 % of control | T/C (dose: 0.19 mg/kg/injection, schedule: Q#A X Z (sc), vehicle: water): 109 % of control | T/C (dose: 0.24 mg/kg/injection, schedule: Q01DX Z (sc), vehicle: water): 108 % of control | T/C (dose: 0.31 mg/kg/injection, schedule: Q01DX Z (sc), vehicle: water): 109 % of control and 110 % of control | T/C (dose: 0.31 mg/kg/injection, schedule: Q#A X Z (sc), vehicle: water): 122 % of control | T/C (dose: 0.4 mg/kg/injection, schedule: Q01DX Z (sc), vehicle: water): 116 % of control | T/C (dose: 0.47 mg/kg/injection, schedule: Q01DX Z (sc), vehicle: water): 120 % of control | T/C (dose: 0.52 mg/kg/injection, schedule: Q01DX Z (sc), vehicle: water): 109 % of control and 113 % of control | T/C (dose: 0.52 mg/kg/injection, schedule: Q02DX Z (sc), vehicle: water): 100 % of control | T/C (dose: 0.78 mg/kg/injection, schedule: Q01DX Z (sc), vehicle: water): 170 % of control | T/C (dose: 0.86 mg/kg/injection, schedule: Q01DX Z (sc), vehicle: water): 155 % of control | T/C (dose: 0.86 mg/kg/injection, schedule: Q02DX Z (sc), vehicle: water): 104 % of control | T/C (dose: 0.86 mg/kg/injection, schedule: Q## X Z (sc), vehicle: water): 100 % of control | T/C (dose: 1.3 mg/kg/injection, schedule: Q01DX Z (sc), vehicle: water): 160 % of control | T/C (dose: 1.44 mg/kg/injection, schedule: Q01DX Z (sc), vehicle: water): 150 % of control | T/C (dose: 1.44 mg/kg/injection, schedule: Q02DX Z (sc), vehicle: water): 109 % of control | T/C (dose: 1.44 mg/kg/injection, schedule: Q## X Z (sc), vehicle: water): 109 % of control | T/C (dose: 2.16 mg/kg/injection, schedule: Q01DX Z (sc), vehicle: water): 150 % of control | T/C (dose: 2.4 mg/kg/injection, schedule: Q## X Z (sc), vehicle: water): 104 % of control | T/C (dose: 3.11 mg/kg/injection, schedule: Q01DX Z (sc), vehicle: water): 116 % of control | T/C (dose: 3.6 mg/kg/injection, schedule: Q01DX Z (sc), vehicle: water): 150 % of control | T/C (dose: 4.0 mg/kg/injection, schedule: Q02DX Z (sc), vehicle: water): 118 % of control | T/C (dose: 4.0 mg/kg/injection, schedule: Q## X Z (sc), vehicle: water): 113 % of control | T/C (dose: 5.18 mg/kg/injection, schedule: Q01DX Z (sc), vehicle: water): 116 % of control | T/C (dose: 6.72 mg/kg/injection, schedule: Q02DX Z (sc), vehicle: water): 154 % of control | T/C (dose: 6.72 mg/kg/injection, schedule: Q## X Z (sc), vehicle: water): 109 % of control | T/C (dose: 8.64 mg/kg/injection, schedule: Q01DX Z (sc), vehicle: water): 100 % of control | T/C (dose: 10.0 mg/kg/injection, schedule: Q01DX Z (sc), vehicle: water): 120 % of control | T/C (dose: 10.0 mg/kg/injection, schedule: Q## X Z (sc), vehicle: water): 110 % of control | T/C (dose: 11.2 mg/kg/injection, schedule: Q## X Z (sc), vehicle: water): 109 % of control | T/C (dose: 14.4 mg/kg/injection, schedule: Q01DX Z (sc), vehicle: water): 104 % of control | T/C (dose: 17.0 mg/kg/injection, schedule: Q07DX Z (sc), vehicle: water): 120 % of control | T/C (dose: 17.0 mg/kg/injection, schedule: Q## X Z (sc), vehicle: water): 110 % of control | T/C (dose: 24.0 mg/kg/injection, schedule: Q01DX Z (sc), vehicle: water): 100 % of control | T/C (dose: 28.0 mg/kg/injection, schedule: Q07DX Z (sc), vehicle: water): 120 % of control | T/C (dose: 28.0 mg/kg/injection, schedule: Q## X Z (sc), vehicle: water): 115 % of control | T/C (dose: 40.0 mg/kg/injection, schedule: Q01DX Z (sc), vehicle: water): 100 % of control | T/C (dose: 47.0 mg/kg/injection, schedule: Q01DX001 (sc), vehicle: water): 115 % of control | T/C (dose: 47.0 mg/kg/injection, schedule: Q07DX Z (sc), vehicle: water): 110 % of control | T/C (dose: 47.0 mg/kg/injection, schedule: Q## X Z (sc), vehicle: water): 110 % of control and 120 % of control | T/C (dose: 78.0 mg/kg/injection, schedule: Q01DX001 (sc), vehicle: water): 120 % of control | T/C (dose: 78.0 mg/kg/injection, schedule: Q07DX Z (sc), vehicle: water): 120 % of control | T/C (dose: 78.0 mg/kg/injection, schedule: Q## X Z (sc), vehicle: water): 110 % of control and 120 % of control | T/C (dose: 130.0 mg/kg/injection, schedule: Q01DX001 (sc), vehicle: water): 120 % of control | T/C (dose: 130.0 mg/kg/injection, schedule: Q07DX Z (sc), vehicle: water): 120 % of control | T/C (dose: 216.0 mg/kg/injection, schedule: Q07DX Z (sc), vehicle: water): 120 % of control | T/C (dose: 216.0 mg/kg/injection, schedule: Q## X Z (sc), vehicle: water): 160 % of control | T/C (dose: 360.0 mg/kg/injection, schedule: Q07DX Z (sc), vehicle: water): 120 % of control

O=C(Nc1ccc(C2=NCCN2)cc1)c1cccc(C(=O)Nc2ccc(C3=NCCN3)cc2)c1
T/C (dose: 8.4 mg/kg/injection, schedule: Q01DX Z (sc), vehicle: water): 110 % of control | T/C (dose: 14.0 mg/kg/injection, schedule: Q01DX Z (sc), vehicle: water): 230 % of control | T/C (dose: 23.0 mg/kg/injection, schedule: Q01DX Z (sc), vehicle: water): 235 % of control | T/C (dose: 39.0 mg/kg/injection, schedule: Q01DX Z (sc), vehicle: water): 270 % of control | T/C (dose: 65.0 mg/kg/injection, schedule: Q01DX Z (sc), vehicle: water): 265 % of control | T/C (dose: 108.0 mg/kg/injection, schedule: Q01DX Z (sc), vehicle: water): 270 % of control

N[C@H](C(=O)O)[C@@H]1CC(Cl)=NO1
T/C (dose: 1.0 mg/kg/injection, schedule: Q01DX009 (sc), vehicle: saline): 113 % of control | T/C (dose: 2.0 mg/kg/injection, schedule: Q01DX009 (sc), vehicle: saline): 150 % of control | T/C (dose: 4.0 mg/kg/injection, schedule: Q01DX009 (sc), vehicle: saline): 159 % of control | T/C (dose: 8.0 mg/kg/injection, schedule: Q01DX009 (sc), vehicle: saline): 151 % of control and 172 % of control | T/C (dose: 16.0 mg/kg/injection, schedule: Q01DX009 (sc), vehicle: saline): 162 % of control | T/C (dose: 32.0 mg/kg/injection, schedule: Q01DX009 (sc), vehicle: saline): 159 % of control | T/C (dose: 64.0 mg/kg/injection, schedule: Q01DX009 (sc), vehicle: saline): 154 % of control
